Data on 14 molecules can be found in patent US20040121965A1, “Method of treating resistant tumors” (Wyeth Holdings Corporation, priority 2002, published 2004).

The test system of assay [1] is Human Melanoma Carcinoma Lox. The conditions noted are these: staged LOX xenograft; at MTD ('<': MTD not achieved); days 11-15. The protocol: 2.4. Growth of Tumors in Nude Mice. […] In these experiments, xenografts are implanted subcutaneously into the flanks of nude mice. […] Relative tumor mass compared to controls are assessed during the 21-day post-staging period.
Groups of 5 female nu/nu mice are injected with 1.5×10^6 KB-3-1 (A) or Lox cells (B). […] Relative tumor growth is determined during the experiment and % T/C calculated. Statistical analyses are Student's t-test of treated time points vs. vehicle (*, P<0.05; **, P<0.01)

A further assay concerns KB-8-5 (MDR1+). The experiment in a line: Cell survival assay (SRB), KB-8-5 (MDR1+). The conditions noted are these: for IC50: Homo sapiens, MDR1, read-out: In vitro IC50 (nM) KB85.
Another assay concerns KB-V1 (MDR1++). The experiment in a line: Cell survival assay (SRB), KB-V1 (MDR1++). The conditions noted are these: for IC50: Homo sapiens, read-out: In vitro IC50 (nM) KBV1.
The next assay deals with KB-3-1. Description: Cell survival assay (SRB), KB-3-1. In kind it is cell-based, human. The following applies: Homo sapiens. The gist of the method: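 Growth inhibition (IC50) is derived from SRB-measured protein content after a 3-day, duplicate exposure to serially diluted compound.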
Where [2] appears, read: KB 3-1, 72 h, amount of drug needed to kill 50% of cells after three days continuous exposure, Table 11, read-out: IC50 in parental cell line KB-3-1.
The mark [3] stands for this setting: KB 3-1, KB-3-1 cells (paclitaxel-sensitive parent), read-out: In vitro IC50 (nM) KB-3-1.

Each structure is given as a SMILES string. Read-outs that look alike come from different tables or passages of the source.

With `CN[C@H](C(=O)N[C@H](C(=O)N(C)[C@H](/C=C(\C)C(=O)O)C(C)C)C(C)C)C(C)(C)c1ccccc1.O=C(O)C(F)(F)F` [Example 105, N,β,β-trimethyl-L-phenylalanyl-N^1-[(1S,2E)-3-carboxy-1-isopropyl-2-butenyl]-N^1-methyl-L-valinamide Trifluoroacetic Acid], the “Activity in nude mice animal model (% T/C @ MTD on days 11-15) LOX” value (shortened to “Activity … (% T/C @ MTD on days 11-15) LOX”) in assay [1] was determined as 8%. For the same molecule, the “Ratio KB85/KB” value in the assay on KB-8-5 (MDR1+) is 2.1. Moreover, the IC50 turned out to be 11.1 nM in the assay on KB-8-5 (MDR1+), 288 nM in the assay on KB-V1 (MDR1++), 5.2 nM with KB-3-1 (setting [2]) and 5.25 nM with KB-3-1 (setting [3]). Besides, the “Ratio KBV1/KB” value with KB-V1 (MDR1++) is on record as 54.9.

Turning to `CN[C@H](C(=O)N[C@H](C(=O)N(C)[C@H](/C=C(\C)C(=O)O)C(C)C)C(C)(C)C)C(C)(C)c1ccc(OC)cc1` [Example 57, N,O,β,β-tetramethyl-L-tyrosyl-N^1-[(1S,2E)-3-carboxy-1-isopropyl-2-butenyl]-N^1,3-dimethyl-L-valinamide], the “Activity … (% T/C @ MTD on days 11-15) LOX” value in assay [1] was <1^4%. Besides, the “Ratio KB85/KB” value in the assay with KB-8-5 (MDR1+) was 2.9. Also, the IC50 in the assay with KB-8-5 (MDR1+) was 4.1 nM; with KB-V1 (MDR1++), 142 nM; with KB-3-1 (setting [2]), 1.4 nM; with KB-3-1 (setting [3]) it was 1.4 nM. Also, in the assay on KB-V1 (MDR1++), the “Ratio KBV1/KB” value was 102.0.

As for `CN[C@H](C(=O)N[C@H](C(=O)N(C)[C@H](/C=C(\C)C(=O)O)C(C)C)C(C)(C)C)C(C)(C)c1cccs1` [Example 20, N-Methyl-3-(2-thienyl)-L-valyl-N^1-[(1S,2E)-3-carboxy-1-isopropyl-2-butenyl]-N^1,3-dimethyl-L-valinamide], in assay [1], the “Activity … (% T/C @ MTD on days 11-15) LOX” value is 3%. Besides, the “Ratio KB85/KB” value in the assay with KB-8-5 (MDR1+) is 2.0. Moreover, the 50% inhibitory concentration (IC50) in the assay with KB-8-5 (MDR1+) came out at 3.9 nM; with KB-V1 (MDR1++), 162 nM; in the assay on KB-3-1 (setting [2]) it was 2 nM; in the assay with KB-3-1 (setting [3]), 2 nM. In addition, in the assay with KB-V1 (MDR1++), the “Ratio KBV1/KB” value was 80.9.

On to `CN[C@H](C(=O)N[C@H](C(=O)N(C)[C@H](/C=C(\C)C(=O)O)C(C)C)C(C)(C)SC)C(C)(C)c1ccccc1` [Example 80, (E,4S)-2,5-dimethyl-4-{methyl[(2R)-3-methyl-2-{[(2S)-3-methyl-2-(methylamino)-3-phenylbutanoyl]amino}-3-(methylsulfanyl)butanoyl]amino}-2-hexenoic Acid], for which, in assay [1], the “Activity … (% T/C @ MTD on days 11-15) LOX” value was 8^4%. Further, the “Ratio KB85/KB” value in the assay with KB-8-5 (MDR1+) worked out at 2.6. The IC50 in the assay on KB-8-5 (MDR1+) was 7.1 nM; with KB-V1 (MDR1++), 303 nM; in the assay with KB-3-1 (setting [2]), 2.7 nM; with KB-3-1 (setting [3]), 2.7 nM. Besides, in the assay with KB-V1 (MDR1++), the “Ratio KBV1/KB” value came out at 112.2.

In the case of `CN[C@H](C(=O)N[C@H](C(=O)N(C)[C@H](/C=C(\C)C(=O)O)C(C)C)C(C)(C)C)C(C)(C)c1ccc(C)c(C)c1` [Example 14, N,β,β,3,4-Pentamethyl-L-phenylalanyl-N^1-[(1S,2E)-3-carboxy-1-isopropyl-2-butenyl]-N^1,3-dimethyl-L-valinamide], in assay [1], the “Activity … (% T/C @ MTD on days 11-15) LOX” value is 2%. In addition, in the assay with KB-8-5 (MDR1+), the “Ratio KB85/KB” value is recorded as 2.8. Besides, the 50% inhibitory concentration (IC50) in the assay with KB-8-5 (MDR1+) was found to be 1.13 nM; in the assay with KB-V1 (MDR1++), 39 nM; in the assay on KB-3-1 (setting [2]), 0.4 nM; in the assay with KB-3-1 (setting [3]), 0.408 nM. The “Ratio KBV1/KB” value in the assay with KB-V1 (MDR1++) worked out at 95.6.

Regarding `CCOC(=O)/C(C)=C/[C@H](C(C)C)N(C)C(=O)[C@@H](NC(=O)[C@@H](NC)C(C)(C)c1ccccc1)C(C)(C)C` [Example 133, Ethyl (E,4S)4-[((2S)-3,3-dimethyl-2-{[(2S)-3-methyl-2-(methylamino)-3-phenylbutanoyl]amino}butanoyl)(methyl)amino]-2,5-dimethyl-2-hexenoate], the “Activity … (% T/C @ MTD on days 11-15) LOX” value in assay [1] stood at 1%. Further, the “Ratio KB85/KB” value in the assay with KB-8-5 (MDR1+) was found to be 14.5. The IC50 in the assay with KB-8-5 (MDR1+) is 499 nM; with KB-V1 (MDR1++), 1870 nM; in the assay on KB-3-1 (setting [2]), 34 nM; in the assay on KB-3-1 (setting [3]) it was 34 nM. Further, the “Ratio KBV1/KB” value with KB-V1 (MDR1++) came to 54.5.

As to `CN[C@H](C(=O)N[C@H](C(=O)N(C)[C@H](/C=C(\C)C(=O)O)C(C)C)C(C)(C)C)C(C)(C)c1cccc(C(F)(F)F)c1` [Example 62, N,β,β-Trimethyl-3-(trifluoromethyl)-L-phenylalanyl-N^1-[(1S,2E)-3-carboxy-1-isopropyl-2-butenyl]-N^1,3-dimethyl-L-valinamide], the “Activity … (% T/C @ MTD on days 11-15) LOX” value in assay [1] was 2%. For the same molecule, the “Ratio KB85/KB” value with KB-8-5 (MDR1+) is recorded as 2.6. The IC50 was found to be 1.7 nM in the assay on KB-8-5 (MDR1+), 42.7 nM in the assay with KB-V1 (MDR1++), 0.7 nM in the assay with KB-3-1 (setting [2]) and 0.647 nM in the assay with KB-3-1 (setting [3]). In addition, the “Ratio KBV1/KB” value in the assay with KB-V1 (MDR1++) is reported as 66.0.

For the molecule `CC/C(=C\[C@H](C(C)C)N(C)C(=O)[C@@H](NC(=O)[C@@H](NC)C(C)(C)c1ccccc1)C(C)(C)C)C(=O)O` [Example 78, N,β,β-Trimethyl-L-phenylalanyl-N^1-[(1S,2E)-3-carboxy-1-isopropyl-2-pentenyl]-N 1,3-dimethyl-L-valinamide], in assay [1], the “Activity … (% T/C @ MTD on days 11-15) LOX” value is on record as 17%. For the same molecule, in the assay on KB-8-5 (MDR1+), the “Ratio KB85/KB” value was found to be 2.5. Further, the IC50 in the assay with KB-8-5 (MDR1+) was found to be 13.7 nM; with KB-V1 (MDR1++), 512 nM; in the assay on KB-3-1 (setting [2]), 5.4 nM; in the assay on KB-3-1 (setting [3]), 5.4 nM. For the same molecule, the “Ratio KBV1/KB” value with KB-V1 (MDR1++) worked out at 94.9.

Turning to `C=CC(C)(C)[C@H](NC(=O)[C@@H](NC)C(C)(C)c1ccccc1)C(=O)N(C)[C@H](/C=C(\C)C(=O)O)C(C)C` [Example 120, (2E,4S)4-[{(2S)-3,3-dimethyl-2-[(N,β,β-trimethyl-L-phenylalanyl)amino]4-pentenoyl}(methyl)amino]-2,5-dimethyl-2-hexenoic Acid], the “Activity … (% T/C @ MTD on days 11-15) LOX” value in assay [1] worked out at 20%. Further, the half-inhibitory concentration (IC50) in the assay on KB-3-1 (setting [2]) turned out to be 3.5 nM.

`CC[C@H](C)[C@H](NC(=O)[C@@H](NC)C(C)(C)c1ccccc1)C(=O)N(C)[C@H](/C=C(\C)C(=O)O)C(C)C.O=C(O)C(F)(F)F` [Example 106, N,β,β-trimethyl-L-phenylalanyl-N^1-[(1S,2E)-3-carboxy-1-isopropyl-2-butenyl]-N^1-methyl-L-isoleucinamide Trifluoroacetic Acid]: the “Activity … (% T/C @ MTD on days 11-15) LOX” value in assay [1] is <47^4%. Moreover, the “Ratio KB85/KB” value in the assay on KB-8-5 (MDR1+) came out at 2.2. Besides, the IC50 turned out to be 34 nM with KB-8-5 (MDR1+), 660 nM with KB-V1 (MDR1++), 15.6 nM with KB-3-1 (setting [2]) and 16 nM in the assay on KB-3-1 (setting [3]). Further, the “Ratio KBV1/KB” value in the assay on KB-V1 (MDR1++) is 42.3.

`CN[C@H](C(=O)N[C@H](C(=O)N(C)[C@H](/C=C(\C)C(=O)O)C(C)C)C(C)(C)C)C(C)(C)C1CCCCC1` [Example 70, 3-Cyclohexyl-N-methyl-L-valyl-N-1-[(1S,2E)-3-carboxy-1-isopropyl-2-butenyl]-N-1,3-dimethyl-L-valinamide]: the “Activity … (% T/C @ MTD on days 11-15) LOX” value in assay [1] came out at 4%. In the assay with KB-8-5 (MDR1+), the “Ratio KB85/KB” value was 1.5. For the same molecule, the 50% inhibitory concentration (IC50) in the assay with KB-8-5 (MDR1+) was 5.6 nM; with KB-V1 (MDR1++), 151 nM; with KB-3-1 (setting [2]), 3.7 nM; with KB-3-1 (setting [3]), 3.7 nM. In addition, in the assay with KB-V1 (MDR1++), the “Ratio KBV1/KB” value is 40.9.

As to `CN[C@H](C(=O)N[C@H](C(=O)N(C)[C@H](/C=C(\C)C(=O)O)C(C)C)C(C)(C)C)C(C)(C)c1cccc(Cl)c1` [Example 2, 3-Chloro-N,β,β-trimethyl-L-phenylalanyl-N^1-[(1S,2E)-3-carboxy-1-isopropyl-2-butenyl]-N^1,3-dimethyl-L-valinamide], in assay [1], the “Activity … (% T/C @ MTD on days 11-15) LOX” value worked out at 9%. Further, the “Ratio KB85/KB” value in the assay with KB-8-5 (MDR1+) came to 2.8. The IC50 in the assay on KB-8-5 (MDR1+) came to 3.2 nM; with KB-V1 (MDR1++), 91 nM; with KB-3-1 (setting [2]) it was 1.1 nM; in the assay on KB-3-1 (setting [3]), 1.14 nM. The “Ratio KBV1/KB” value with KB-V1 (MDR1++) is given as 80.0.

For `CN[C@H](C(=O)N[C@H](C(=O)N(C)[C@H](C[C@@H](C)C(=O)O)C(C)C)C(C)(C)C)C(C)(C)c1ccccc1` [Example 124, N,β,β-trimethyl-L-phenylalanyl-N^1-[(1R,3R)-3-carboxy-1-isopropylbutyl]-N^1,3-dimethyl-L-valinamide], the “Activity … (% T/C @ MTD on days 11-15) LOX” value in assay [1] is listed as 62%. Besides, in the assay on KB-8-5 (MDR1+), the “Ratio KB85/KB” value stood at 2.2. Also, the half-maximal inhibitory concentration (IC50) in the assay on KB-8-5 (MDR1+) worked out at 18.9 nM; in the assay with KB-V1 (MDR1++), 1320 nM; in the assay with KB-3-1 (setting [2]), 8.6 nM; in the assay on KB-3-1 (setting [3]) it was 8.6 nM. In addition, in the assay with KB-V1 (MDR1++), the “Ratio KBV1/KB” value was 153.0.

For `C/C(=C\[C@H](C(C)C)N(C)C(=O)[C@@H](NC(=O)[C@@H](N(C)C)C(C)(C)c1ccccc1)C(C)(C)C)C(=O)O` [Example 52, N,N,β, β-Tetramethyl-L-phenylalanyl-N^1-[(1S,2E)-3-carboxy-1-isopropyl-2-butenyl]-N^1,3-dimethyl-L-valinamide], the “Activity … (% T/C @ MTD on days 11-15) LOX” value in assay [1] came out at 1%. In the assay on KB-8-5 (MDR1+), the “Ratio KB85/KB” value is listed as 2.4. Also, the IC50 was found to be 3.7 nM with KB-8-5 (MDR1+), 116 nM in the assay with KB-V1 (MDR1++), 1.6 nM in the assay on KB-3-1 (setting [2]) and 1.55 nM in the assay with KB-3-1 (setting [3]). For the same molecule, in the assay with KB-V1 (MDR1++), the “Ratio KBV1/KB” value worked out at 74.6.
